Test systems include OVCAR-3; HOP-92; SW-620; OVCAR-4; SK-OV-3; HOP-62; HT-29; HCT-15; NCI-H522; SF-268; TK-10; OVCAR-5; Malme-3M; MOLT-4; NCI/ADR-RES; SF-539; HCC 2998; Hs-578T; M14.
What all share (experiment): NCI anticancer screen, dose series, 48 h

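Results reflect a 48-hour exposure of cells in 96-well plates to compound at five concentrations. At the GI50, growth is halved.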 Calls of active or inactive are those of the source. No stated cut-off is given here; in the data, active = GI50 up to about 1.1 µM and inactive = higher. Peptide text beside a SMILES is read from it. * marks the point of attachment. Cbz = O=C(OCc1ccccc1)*

In the case of `CC(C)(C)OC(=O)NC(CCC(=O)OCc1ccccc1)C(=O)NCCCO` (centres undefined), the GI50 in the assay on OVCAR-3, in the assay with HOP-92, with SW-620, in the assay with OVCAR-4, in the assay with SK-OV-3 and in the assay with HOP-62 was > 100 µM (inactive) throughout. Moreover, the GI50 in the assay on HT-29 is > 100 µM (inactive); in the assay on HCT-15 it was over 100 µM; in the assay on NCI-H522 it was > 100 µM (inactive); in the assay on SF-268, > 100 µM (inactive); in the assay on TK-10, > 100 µM (inactive); with OVCAR-5 it was > 100 µM (inactive). Also, the GI50 with Malme-3M, in the assay on MOLT-4, in the assay with NCI/ADR-RES, with SF-539, in the assay with HCC 2998 and in the assay with Hs-578T was > 100 µM (inactive) in each case. For the same molecule, the GI50 in the assay with M14 is > 100 µM (inactive).

In the case of `O=c1c(=O)c2c(Br)sc(Br)c2c1=O`, the GI50 is 18.5 µM (inactive) in the assay on OVCAR-3; 17.9 µM (inactive) in the assay with HOP-92; 15.8 µM (inactive) in the assay with SW-620; 16.4 µM (inactive) in the assay on OVCAR-4; 43.8 µM (inactive) in the assay on SK-OV-3; 30.2 µM (inactive) in the assay on HOP-62. Also, the GI50 in the assay on HT-29 is 25 µM (inactive); in the assay with HCT-15 it was 19.4 µM; in the assay on NCI-H522, 16.1 µM (inactive); with SF-268, 33 µM (inactive); in the assay on TK-10, 22.1 µM (inactive); in the assay with OVCAR-5 it was 20.3 µM (inactive). The GI50 in the assay on Malme-3M is 17.7 µM (inactive); in the assay on MOLT-4 it was 24.3 µM (inactive); with NCI/ADR-RES, 32.7 µM (inactive); in the assay on SF-539, 19.5 µM (inactive); in the assay with HCC 2998 it was 57.3 µM (inactive); with Hs-578T it was 31 µM (inactive). Also, in the assay with M14, the GI50 was 19.8 µM (inactive).

`O=C(CNc1ccccc1[N+](=O)[O-])Nn1c(-c2ccccc2)nc2ccccc2c1=O`: the GI50 with OVCAR-3 is 29.4 µM (inactive); with HOP-92, 12.4 µM (inactive); in the assay on SW-620 it was 19.1 µM (inactive); in the assay with OVCAR-4, 17 µM (inactive); in the assay on SK-OV-3, 30.7 µM (inactive); in the assay on HOP-62, 20.1 µM (inactive). The GI50 is 17.5 µM (inactive) in the assay on HT-29; 19.9 µM with HCT-15; > 10 µM (inactive) in the assay with NCI-H522; 32.4 µM (inactive) with SF-268; > 10 µM (inactive) with TK-10; 22.3 µM (inactive) in the assay with OVCAR-5. The GI50 with Malme-3M was 23.9 µM (inactive); with MOLT-4 it was 16.1 µM (inactive); with NCI/ADR-RES, 25.7 µM (inactive); in the assay with SF-539, 19.7 µM (inactive); with HCC 2998 it was 13.5 µM (inactive); in the assay on Hs-578T, 27.4 µM (inactive). For the same molecule, the GI50 in the assay on M14 was 16.7 µM (inactive).

As to `O=C(O)c1ccccc1/C=N/N=C1NCCCCN1`, the GI50 in the assay on OVCAR-3, with HOP-92, with SW-620, in the assay on OVCAR-4, in the assay on SK-OV-3 and in the assay with HOP-62 was > 100 µM (inactive) throughout. Further, the GI50 was > 100 µM (inactive) with HT-29; over 100 µM with HCT-15; 90.8 µM (inactive) in the assay on NCI-H522; > 100 µM (inactive) with SF-268; > 100 µM (inactive) with TK-10; > 100 µM (inactive) with OVCAR-5. Further, the GI50 in the assay on Malme-3M, in the assay on MOLT-4, with NCI/ADR-RES, in the assay with SF-539, with HCC 2998 and with Hs-578T was > 100 µM (inactive) in each case. For the same molecule, the GI50 with M14 is > 100 µM (inactive).

Consider `COc1ccc(C(OCC2OC(n3cc(C)c(=O)[nH]c3=O)CC2n2cc(Cn3cc(I)c(=O)[nH]c3=O)nn2)(c2ccccc2)c2ccccc2)cc1` (centres undefined), for which the GI50 with OVCAR-3, in the assay on HOP-92, in the assay with SW-620, with OVCAR-4, with SK-OV-3 and with HOP-62 was > 100 µM (inactive) each time. Besides, the GI50 with HT-29 is > 100 µM (inactive); in the assay on HCT-15 it was over 100 µM; in the assay on NCI-H522, > 100 µM (inactive); with SF-268 it was 78.5 µM (inactive); with TK-10 it was > 100 µM (inactive); in the assay on OVCAR-5, > 100 µM (inactive). The GI50 is > 100 µM (inactive) with Malme-3M; 7.67 µM (inactive) in the assay on MOLT-4; > 100 µM (inactive) in the assay with NCI/ADR-RES; > 100 µM (inactive) in the assay on SF-539; > 100 µM (inactive) in the assay on HCC 2998; 44.8 µM (inactive) in the assay on Hs-578T. In the assay with M14, the GI50 was > 100 µM (inactive).

Take `C1CSCCCSCCCSCCCSCCCSC1`: the GI50 in the assay on OVCAR-3 is 28.6 µM (inactive); with HOP-92 it was 24.1 µM (inactive); in the assay with SW-620 it was 56.5 µM (inactive); in the assay on OVCAR-4 it was 22.5 µM (inactive); in the assay on SK-OV-3, 34.4 µM (inactive); in the assay on HOP-62 it was 47.4 µM (inactive). The GI50 with HT-29 was 22.9 µM (inactive); with HCT-15, 40.6 µM; in the assay with NCI-H522 it was 27.2 µM (inactive); in the assay with SF-268, 33.1 µM (inactive); in the assay on TK-10, 37.2 µM (inactive); in the assay on OVCAR-5, 57.8 µM (inactive). Also, the GI50 with Malme-3M was 33.3 µM (inactive); in the assay on MOLT-4, 9.82 µM (inactive); with NCI/ADR-RES, 14.9 µM (inactive); in the assay with SF-539 it was 43.7 µM (inactive); with HCC 2998, 38 µM (inactive); in the assay with Hs-578T, 44.8 µM (inactive). For the same molecule, in the assay with M14, the GI50 was 29.7 µM (inactive).

Consider `COc1ccccc1/C=C/c1cnccn1`, for which the GI50 in the assay on OVCAR-3, with HOP-92, in the assay on SW-620, with OVCAR-4, with SK-OV-3 and in the assay with HOP-62 was > 10 µM (inactive) in each case. Further, the GI50 is > 10 µM (inactive) with HT-29; over 10 µM in the assay on HCT-15; > 10 µM (inactive) in the assay with NCI-H522; > 10 µM (inactive) with SF-268; > 10 µM (inactive) in the assay with TK-10; > 10 µM (inactive) in the assay with OVCAR-5. For the same molecule, the GI50 with Malme-3M, with MOLT-4, in the assay on NCI/ADR-RES, in the assay on SF-539, with HCC 2998 and with Hs-578T was > 10 µM (inactive) each time. Moreover, in the assay with M14, the GI50 is > 10 µM (inactive).

Take `O=C(O)CCC(NC(=O)OCc1ccccc1)C(=O)NC(Cc1c[nH]cn1)C(=O)O` (stereo not drawn) (Cbz-Glu-His-OH; configuration not given here): the GI50 in the assay on OVCAR-3, with HOP-92, with SW-620, in the assay with OVCAR-4, with SK-OV-3 and with HOP-62 was > 100 µM (inactive) throughout. Besides, the GI50 in the assay with HT-29 was > 100 µM (inactive); with HCT-15 it was over 100 µM; in the assay with NCI-H522 it was > 100 µM (inactive); in the assay with SF-268, > 100 µM (inactive); in the assay on TK-10, > 100 µM (inactive); in the assay with OVCAR-5, > 100 µM (inactive). Also, the GI50 in the assay with Malme-3M, with MOLT-4, in the assay on NCI/ADR-RES, in the assay on SF-539, in the assay with HCC 2998 and in the assay on Hs-578T was > 100 µM (inactive) each time. In the assay on M14, the GI50 is > 100 µM (inactive).

Turning to `CC1=C(/C=C/C(C)=C/C=C/C(C)=C/C(=O)Nc2ccc(O)cc2)C(C)(C)CCC1` [FENRETINIDE], the GI50 in the assay with OVCAR-3 is 2.55 µM (inactive); in the assay with HOP-92, 2.97 µM (inactive); with SW-620, 5.48 µM (inactive); in the assay with OVCAR-4, 3.94 µM (inactive); in the assay on SK-OV-3, 6.68 µM (inactive); in the assay on HOP-62 it was 5.46 µM (inactive). Also, the GI50 was 2.63 µM (inactive) in the assay with HT-29; 5.92 µM in the assay on HCT-15; 0.929 µM (active) with NCI-H522; 3.52 µM (inactive) in the assay on SF-268; 16.1 µM (inactive) with TK-10; 10.6 µM (inactive) in the assay with OVCAR-5. The GI50 is 4.94 µM (inactive) with Malme-3M; 1.11 µM (active) in the assay on MOLT-4; 2.71 µM (inactive) in the assay on NCI/ADR-RES; 1.05 µM (active) in the assay on SF-539; 4.16 µM (inactive) in the assay with HCC 2998; 3.33 µM (inactive) in the assay with Hs-578T. In addition, the GI50 in the assay with M14 is 4.92 µM (inactive).

`O=C1C2C=CC1C1C(=O)OC(=O)C21` (centres undefined): the GI50 in the assay on OVCAR-3, with HOP-92, with SW-620, in the assay with OVCAR-4, with SK-OV-3 and with HOP-62 was > 100 µM (inactive) each time. The GI50 in the assay on HT-29 is > 100 µM (inactive); with HCT-15 it was over 100 µM; in the assay on NCI-H522, > 100 µM (inactive); in the assay with SF-268 it was > 100 µM (inactive); with TK-10, > 100 µM (inactive); in the assay on OVCAR-5, > 100 µM (inactive). For the same molecule, the GI50 in the assay on Malme-3M, in the assay with MOLT-4, with NCI/ADR-RES, in the assay on SF-539, in the assay on HCC 2998 and in the assay on Hs-578T was > 100 µM (inactive) in each case. Moreover, the GI50 in the assay on M14 was > 100 µM (inactive).

Regarding `NS(=O)(=O)c1ccc(/N=N/c2ccc(O)c(O)c2)cc1`, the GI50 in the assay on OVCAR-3 was 24.3 µM (inactive); in the assay with HOP-92, 23.7 µM (inactive); with SW-620, 7.89 µM (inactive); with OVCAR-4, 5.98 µM (inactive); with SK-OV-3, 23.3 µM (inactive); in the assay with HOP-62, 27.4 µM (inactive). In addition, the GI50 is 27.2 µM (inactive) with HT-29; 3.18 µM in the assay with HCT-15; 1.6 µM (inactive) with NCI-H522; 14.5 µM (inactive) in the assay with SF-268; 24.6 µM (inactive) with TK-10; 48.6 µM (inactive) in the assay on OVCAR-5. Besides, the GI50 with Malme-3M was 21.3 µM (inactive); in the assay on MOLT-4, 3.79 µM (inactive); with NCI/ADR-RES, 16.9 µM (inactive); with SF-539, 15.9 µM (inactive); with HCC 2998, 21.2 µM (inactive); in the assay with Hs-578T, 20 µM (inactive). Besides, the GI50 in the assay with M14 is 24.5 µM (inactive).

Source of the values: ChEMBL document CHEMBL1201862, “PubChem BioAssay data set” (2004).
